Molecules are shown by their SMILES. Calls of active or inactive are those of the source. Rule as the data show it: actives have a measured IC50 and inactives only a lower limit.

In the assay the target is Envelope glycoprotein gp160 (Human immunodeficiency virus 1, UniProt Q6QLK5). Nature of the assay: cell-free HIV fusion peptide-binding blockers – biochemical, uHTS, fluorescence dequenching, […] (AID 1986).
Chain of Envelope glycoprotein gp160 (Q6QLK5 whole entry, the tested form may be a part): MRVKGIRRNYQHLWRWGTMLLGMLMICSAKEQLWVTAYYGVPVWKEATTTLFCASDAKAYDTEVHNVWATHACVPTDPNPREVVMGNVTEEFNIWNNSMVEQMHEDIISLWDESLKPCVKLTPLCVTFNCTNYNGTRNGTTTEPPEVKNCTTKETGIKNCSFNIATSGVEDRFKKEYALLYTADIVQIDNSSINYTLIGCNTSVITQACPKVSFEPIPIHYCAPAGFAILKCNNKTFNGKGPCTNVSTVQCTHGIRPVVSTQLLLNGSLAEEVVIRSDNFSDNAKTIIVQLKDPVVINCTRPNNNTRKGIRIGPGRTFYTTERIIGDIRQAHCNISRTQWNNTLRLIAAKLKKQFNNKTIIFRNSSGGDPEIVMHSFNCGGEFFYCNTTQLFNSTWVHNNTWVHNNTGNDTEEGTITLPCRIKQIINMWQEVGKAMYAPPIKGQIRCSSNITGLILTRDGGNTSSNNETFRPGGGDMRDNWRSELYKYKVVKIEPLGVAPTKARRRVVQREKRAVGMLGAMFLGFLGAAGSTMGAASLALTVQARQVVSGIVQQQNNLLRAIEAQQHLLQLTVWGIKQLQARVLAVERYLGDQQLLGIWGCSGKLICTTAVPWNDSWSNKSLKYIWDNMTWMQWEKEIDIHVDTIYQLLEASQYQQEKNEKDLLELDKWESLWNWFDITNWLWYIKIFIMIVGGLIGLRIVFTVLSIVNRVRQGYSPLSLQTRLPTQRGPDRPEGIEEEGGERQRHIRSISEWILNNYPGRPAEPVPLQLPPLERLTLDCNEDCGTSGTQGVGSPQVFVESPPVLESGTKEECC
As a reminder, the IC50 is the concentration at which inhibition is half-maximal. In the case of `O=C(O)CN1C(=O)/C(=C\c2cc(Br)ccc2OCc2ccc([N+](=O)[O-])cc2)SC1=S`, the IC50 was 10.1 µM (active).
In the case of `Cc1c(CC(=O)O)c(=O)oc2c(C)c3occ(-c4ccc(Br)cc4)c3cc12`, the IC50 is 27.6 µM (active).
Regarding `Cc1cc(/C=C2\C(=N)N3N=C(S(C)(=O)=O)SC3=NC2=O)c(C)n1Cc1ccccc1`, the IC50 was 26.2 µM (active).
Take `CC(C)(C)c1cc(-c2csc(Nc3ccccc3)[n+]2Cc2ccc(C(=O)O)cc2)cc(C(C)(C)C)c1O`: the IC50 is 12.9 µM (active).

Values taken from ChEMBL document CHEMBL1201862, “PubChem BioAssay data set” (2004).
